Columns and labels:
Assay type in all cases: in vivo
corn (Zea mays) = test: Test A postemergence; conditions: Zea mays, post-emergence, 240 h, Postemergence, read-out: Corn plant response rating (0 to 100 scale)
Procedure, shortened: (§1)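 Visual injury, scored on a 0–100 scale relative to untreated controls, was recorded about 10 d after application. Treatments were a preemergence soil spray over planted seeds or a postemergence spray on plants at the one- to two-leaf stage, 2 to 10 cm tall, all in loam soil–sand blend in the greenhouse.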

[1] = tested on: blackgrass (Alopecurus myosuroides); test: Test A postemergence; conditions: Alopecurus myosuroides, post-emergence, 240 h, Postemergence, read-out: Blackgrass plant response rating (0 to 100 scale)
Procedure, shortened: as §1

[2] = tested on: giant foxtail (Setaria faberii); test: Test A postemergence; conditions: Setaria faberi, post-emergence, 240 h, Postemergence, read-out: Foxtail, Giant plant response rating (0 to 100 scale)
Procedure, shortened: as §1

Kochia (Kochia scoparia) [3] = test: Test A postemergence; conditions: Bassia scoparia, post-emergence, 240 h, Postemergence, read-out: Kochia plant response rating (0 to 100 scale)
Procedure, shortened: as §1

[4] = tested on: ryegrass, Italian (Italian ryegrass, Lolium multiflorum); test: Test A postemergence; conditions: Lolium multiflorum, post-emergence, 240 h, Postemergence, read-out: Ryegrass, Italian plant response rating (0 to 100 scale)
Procedure, shortened: as §1

[5] = tested on: wheat (Triticum aestivum); test: Test A postemergence; conditions: Triticum aestivum, post-emergence, 240 h, Postemergence, read-out: Wheat plant response rating (0 to 100 scale)
Procedure, shortened: as §1

[6] = tested on: ragweed (common ragweed, Ambrosia elatior); test: Test A postemergence; conditions: Ambrosia artemisiifolia, post-emergence, 240 h, Postemergence, read-out: Ragweed plant response rating (0 to 100 scale)
Procedure, shortened: as §1

[7] = tested on: pigweed (Amaranthus retroflexus); test: Test A postemergence; conditions: Amaranthus retroflexus, post-emergence, 240 h, Postemergence, read-out: Pigweed plant response rating (0 to 100 scale)
Procedure, shortened: as §1

[8] = tested on: barnyardgrass (Echinochloa crus-galli); test: Test A postemergence; conditions: Echinochloa crus-galli, post-emergence, 240 h, Postemergence
Procedure, shortened: as §1

[9] = tested on: Galium (catchweed bedstraw, Galium aparine); test: Test A postemergence; conditions: Galium, post-emergence, 240 h, Postemergence, read-out: Galium plant response rating (0 to 100 scale)
Procedure, shortened: as §1

[10] = tested on: sedge, umbrella (small-flower umbrella sedge, Cyperus difformis); test: Test B flooded paddy test; conditions: Cyperus difformis, 360 h, Flood, 250 g ai/ha; visually evaluated after 13 to 15 d; read-out: Plant response rating, Sedge, Umbrella (0 to 100 scale where 0 is no effect and 100 is complete control)
Procedure, shortened: (§2)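 Rating scale 0–100 (visual, vs untreated controls) after a 13–15 d greenhouse period; application to the flood layer, 3 cm above soil and maintained; plants at 2-leaf stage when treated.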

rice (Oryra sativa) = test: Test B flooded paddy test; conditions: Oryza sativa, 360 h, Flood, 250 g ai/ha; visually evaluated after 13 to 15 d; read-out: Plant response rating, Rice (0 to 100 scale where 0 is no effect and 100 is complete control)
Procedure, shortened: as §2

[11] = tested on: barnyardgrass (Echinochloa crus-galli); test: Test B flooded paddy test; conditions: Echinochloa crus-galli, 360 h, Flood, 250 g ai/ha; visually evaluated after 13 to 15 d; read-out: Plant response rating, Barnyardgrass (0 to 100 scale where 0 is no effect and 100 is complete control)
Procedure, shortened: as §2

[12] = tested on: ducksalad (Heteranthera limosa); test: Test B flooded paddy test; conditions: Heteranthera limosa, 360 h, Flood, 250 g ai/ha; visually evaluated after 13 to 15 d; read-out: Plant response rating, Ducksalad (0 to 100 scale where 0 is no effect and 100 is complete control)
Procedure, shortened: as §2

[13] = tested on: giant foxtail (Setaria faberii); test: Test A preemergence; conditions: Setaria faberi, pre-emergence, 240 h, Preemergence
Procedure, shortened: as §1

Kochia (Kochia scoparia) [14] = test: Test A preemergence; conditions: Bassia scoparia, pre-emergence, 240 h, Preemergence
Procedure, shortened: as §1

[15] = tested on: ryegrass, Italian (Italian ryegrass, Lolium multiflorum); test: Test A preemergence; conditions: Lolium multiflorum, pre-emergence, 240 h, Preemergence
Procedure, shortened: as §1

[16] = tested on: ragweed (common ragweed, Ambrosia elatior); test: Test A preemergence; conditions: Ambrosia artemisiifolia, pre-emergence, 240 h, Preemergence
Procedure, shortened: as §1

[17] = tested on: pigweed (Amaranthus retroflexus); test: Test A preemergence; conditions: Amaranthus retroflexus, pre-emergence, 240 h, Preemergence
[18] = tested on: barnyardgrass (Echinochloa crus-galli); test: Test A preemergence; conditions: Echinochloa crus-galli, pre-emergence, 240 h, Preemergence
Procedure, shortened: as §1

[19] = 125 g ai/ha, visual rating about 10 d after treatment
[20] = 31 g ai/ha, 0 is no effect, 100 is complete control

CC(C)Oc1ccc([C@H]2CN(C)C(=O)[C@@H]2C(=O)Nc2ccccc2F)cc1F [Compound 1333]
70%: pest or weed control at 125 g/ha ([8]; 125 g ai/ha, visual rating about 10 d after treatment, read-out: Barnyardgrass plant response rating (0 to 100 scale, 0 no effect, 100 complete control)) | pest or weed control at 250 g/ha [10] | pest or weed control at 125 g/ha ([18]; 125 g ai/ha, 0 to 100 scale (0 no effect, 100 complete control), read-out: Plant response rating, Barnyardgrass)
40%: pest or weed control at 31 g/ha ([18]; 31 g ai/ha, 0 to 100 scale where 0 is no effect and 100 is complete control, read-out: Barnyardgrass plant response rating)
0%: plant injury at 125 g/ha (corn (Zea mays); [19]) | plant injury at 31 g/ha (corn (Zea mays); [20]) | pest or weed control at 125 g/ha [1, 19] | pest or weed control at 31 g/ha [1, 20] | pest or weed control at 31 g/ha [2, 20] | pest or weed control at 125 g/ha (Kochia (Kochia scoparia) [3]; [19]) | pest or weed control at 31 g/ha (Kochia (Kochia scoparia) [3]; [20]) | pest or weed control at 125 g/ha [4, 19] | pest or weed control at 31 g/ha [4, 20] | plant injury at 125 g/ha [5, 19] | plant injury at 31 g/ha [5, 20] | pest or weed control at 125 g/ha [6, 19] | pest or weed control at 31 g/ha [6, 20] | pest or weed control at 31 g/ha [7, 20] | pest or weed control at 31 g/ha ([8]; 31 g ai/ha, 0 is no effect, 100 is complete control, read-out: Barnyardgrass plant response rating (0 to 100 scale)) | pest or weed control at 125 g/ha [9, 19] | pest or weed control at 31 g/ha [9, 20] | pest or weed control at 31 g/ha (Kochia (Kochia scoparia) [14]; 31 g ai/ha, 0 to 100 scale where 0 is no effect and 100 is complete control, read-out: Kochia plant response rating) | pest or weed control at 31 g/ha ([15]; 31 g ai/ha, 0 to 100 scale where 0 is no effect and 100 is complete control, read-out: Ryegrass, Italian plant response rating) | pest or weed control at 125 g/ha ([15]; 125 g ai/ha, 0 to 100 scale (0 no effect, 100 complete control), read-out: Plant response rating, Ryegrass, Italian) | pest or weed control at 31 g/ha ([16]; 31 g ai/ha, 0 to 100 scale where 0 is no effect and 100 is complete control, read-out: Ragweed plant response rating) | pest or weed control at 125 g/ha ([16]; 125 g ai/ha, 0 to 100 scale (0 no effect, 100 complete control), read-out: Plant response rating, Ragweed) | pest or weed control at 31 g/ha ([17]; 31 g ai/ha, 0 to 100 scale where 0 is no effect and 100 is complete control, read-out: Pigweed plant response rating) | pest or weed control at 125 g/ha ([17]; 125 g ai/ha, 0 to 100 scale (0 no effect, 100 complete control), read-out: Plant response rating, Pigweed)
20%: pest or weed control at 250 g/ha (rice (Oryra sativa))
10%: pest or weed control at 125 g/ha [7, 19]
90%: pest or weed control at 31 g/ha ([13]; 31 g ai/ha, 0 to 100 scale where 0 is no effect and 100 is complete control, read-out: Foxtail, Giant plant response rating) | pest or weed control at 125 g/ha ([13]; 125 g ai/ha, 0 to 100 scale (0 no effect, 100 complete control), read-out: Plant response rating, Foxtail, Giant)
60%: pest or weed control at 125 g/ha [2, 19]
45%: pest or weed control at 250 g/ha [11]
30%: pest or weed control at 125 g/ha (Kochia (Kochia scoparia) [14]; 125 g ai/ha, 0 to 100 scale (0 no effect, 100 complete control), read-out: Plant response rating, Kochia)
80%: pest or weed control at 250 g/ha [12]

Source: US12077503B2, “Substituted cyclic amides and their use as herbicides” (FMC CORPORATION, priority 2015, dated 2024)
